# Tests used:
# Test in all cases: Test B pre-/postemergence
# Format in all cases: in vivo
# Design in all cases: key: 0 is no effect; 10 is complete control
# [1] = system: broadleaf signalgrass (Brachiaria decumbens)
# Summary of the method: (§1)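 Scored visually 0 (none) to 10 (complete control) against untreated plants after twelve to sixteen greenhouse days. Test chemicals, formulated in surfactant-containing non-phytotoxic solvent, applied to soil after planting and, separately, onto 1- to 4-leaf (2–18 cm) plants.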
# [2] = system: bedstraw (Galium aparine)
# Summary of the method: as §1
# rape (Brassica napus) = system: rape (Brassica napus)
# Summary of the method: as §1
# [3] = system: momingglory (Ipomoea hederacea)
# Summary of the method: as §1
# [4] = system: crabgrass (Digitaria sanguinalis)
# Summary of the method: as §1
# wild oat (Avena fatua) = system: wild oat (Avena fatua)
# Summary of the method: as §1
# soybean (Glycine max) = system: soybean (Glycine max)
# Summary of the method: as §1
# [5] = system: pigweed (Amaranthus retroflexus)
# Summary of the method: as §1
# [6] = system: blackgrass (Alopecurus myosuroides)
# Summary of the method: as §1
# [7] = system: velvetleaf (Abutilon theophrasti)
# Summary of the method: as §1
# corn (Zea mays) = system: corn (Zea mays)
# Summary of the method: as §1
# [8] = system: wheat (Triticum aestivum)
# Summary of the method: as §1
# [9] = system: sugar beet (Beta vulgaris)
# Summary of the method: as §1
# [10] = system: cocklebur (Xanthium strumarium)
# Summary of the method: as §1
# [11] = Preemergence, Rate 62 g/ha, scale of 0 to 10
smiles,measurement,setting,value
Cc1cnc(-n2cnc(C(F)(F)F)n2)nc1C(=O)c1cccc(C(F)(F)F)c1 [Compound 67],B. signalgrass plant response rating,"[1]; Rate 62 g/ha, Postemergence",5
same,B. signalgrass plant response rating,"[1]; Rate 62 g/ha, Preemergence",8
same,B. signalgrass plant response rating,"[1]; Rate 125 g/ha, Postemergence",7
same,"Plant response rating, B. signalgrass","[1]; Rate 125 g/ha, Preemergence",9
same,"Plant response rating, B. signalgrass","[1]; Rate 250 g/ha, Postemergence",7
same,"Plant response rating, B. signalgrass","[1]; Rate 250 g/ha, Preemergence",10
same,"Plant response rating, B. signalgrass","[1]; Rate 500 g/ha, Postemergence",9
same,"Plant response rating, B. signalgrass","[1]; Rate 500 g/ha, Preemergence",10
same,"Plant response rating, Bedstraw",[2]; [11],7
same,Bedstraw plant response rating,"[2]; Rate 62 g/ha, Postemergence",9
same,Bedstraw plant response rating,"[2]; Rate 125 g/ha, Postemergence",9
same,"Plant response rating, Bedstraw","[2]; Rate 125 g/ha, Preemergence",9
same,"Plant response rating, Bedstraw","[2]; Rate 250 g/ha, Postemergence",10
same,"Plant response rating, Bedstraw","[2]; Rate 250 g/ha, Preemergence",9
same,"Plant response rating, Bedstraw","[2]; Rate 500 g/ha, Postemergence",10
same,"Plant response rating, Bedstraw","[2]; Rate 500 g/ha, Preemergence",10
same,"Plant response rating, Rape",rape (Brassica napus); [11],7
same,Rape plant response rating,"rape (Brassica napus); Rate 62 g/ha, Postemergence",6
same,Rape plant response rating,"rape (Brassica napus); Rate 125 g/ha, Postemergence",8
same,"Plant response rating, Rape","rape (Brassica napus); Rate 125 g/ha, Preemergence",9
same,"Plant response rating, Rape","rape (Brassica napus); Rate 250 g/ha, Postemergence",8
same,"Plant response rating, Rape","rape (Brassica napus); Rate 250 g/ha, Preemergence",10
same,"Plant response rating, Rape","rape (Brassica napus); Rate 500 g/ha, Postemergence",9
same,"Plant response rating, Rape","rape (Brassica napus); Rate 500 g/ha, Preemergence",10
same,"Plant response rating, Morningglory",[3]; [11],8
same,Morningglory plant response rating,"[3]; Rate 62 g/ha, Postemergence",7
same,Morningglory plant response rating,"[3]; Rate 125 g/ha, Postemergence",7
same,"Plant response rating, Morningglory","[3]; Rate 125 g/ha, Preemergence",10
same,"Plant response rating, Morningglory","[3]; Rate 250 g/ha, Postemergence",10
same,"Plant response rating, Morningglory","[3]; Rate 250 g/ha, Preemergence",10
same,"Plant response rating, Morningglory","[3]; Rate 500 g/ha, Postemergence",10
same,"Plant response rating, Morningglory","[3]; Rate 500 g/ha, Preemergence",10
same,"Plant response rating, Crabgrass",[4]; [11],6
same,Crabgrass plant response rating,"[4]; Rate 62 g/ha, Postemergence",7
same,Crabgrass plant response rating,"[4]; Rate 125 g/ha, Postemergence",9
same,"Plant response rating, Crabgrass","[4]; Rate 125 g/ha, Preemergence",9
same,"Plant response rating, Crabgrass","[4]; Rate 250 g/ha, Postemergence",10
same,"Plant response rating, Crabgrass","[4]; Rate 250 g/ha, Preemergence",10
same,"Plant response rating, Crabgrass","[4]; Rate 500 g/ha, Postemergence",10
same,"Plant response rating, Crabgrass","[4]; Rate 500 g/ha, Preemergence",10
same,"Plant response rating, Wild oats",wild oat (Avena fatua); [11],3
same,Wild oats plant response rating,"wild oat (Avena fatua); Rate 62 g/ha, Postemergence",5
same,Wild oats plant response rating,"wild oat (Avena fatua); Rate 125 g/ha, Postemergence",7
same,"Plant response rating, Wild oats","wild oat (Avena fatua); Rate 125 g/ha, Preemergence",5
same,"Plant response rating, Wild oats","wild oat (Avena fatua); Rate 250 g/ha, Postemergence",8
same,"Plant response rating, Wild oats","wild oat (Avena fatua); Rate 250 g/ha, Preemergence",6
same,"Plant response rating, Wild oats","wild oat (Avena fatua); Rate 500 g/ha, Postemergence",8
same,"Plant response rating, Wild oats","wild oat (Avena fatua); Rate 500 g/ha, Preemergence",9
same,"Plant response rating, Soybean",soybean (Glycine max); [11],1
same,Soybean plant response rating,"soybean (Glycine max); Rate 62 g/ha, Postemergence",7
same,Soybean plant response rating,"soybean (Glycine max); Rate 125 g/ha, Postemergence",7
same,"Plant response rating, Soybean","soybean (Glycine max); Rate 125 g/ha, Preemergence",2
same,"Plant response rating, Soybean","soybean (Glycine max); Rate 250 g/ha, Postemergence",8
same,"Plant response rating, Soybean","soybean (Glycine max); Rate 250 g/ha, Preemergence",3
same,"Plant response rating, Soybean","soybean (Glycine max); Rate 500 g/ha, Postemergence",8
same,"Plant response rating, Soybean","soybean (Glycine max); Rate 500 g/ha, Preemergence",8
same,"Plant response rating, Redroot pigweed",[5]; [11],9
same,Redroot pigweed plant response rating,"[5]; Rate 62 g/ha, Postemergence",9
same,Redroot pigweed plant response rating,"[5]; Rate 125 g/ha, Postemergence",10
same,"Plant response rating, Redroot pigweed","[5]; Rate 125 g/ha, Preemergence",10
same,"Plant response rating, Redroot pigweed","[5]; Rate 250 g/ha, Postemergence",10
same,"Plant response rating, Redroot pigweed","[5]; Rate 250 g/ha, Preemergence",10
same,"Plant response rating, Redroot pigweed","[5]; Rate 500 g/ha, Postemergence",10
same,"Plant response rating, Redroot pigweed","[5]; Rate 500 g/ha, Preemergence",10
same,"Plant response rating, Blackgrass",[6]; [11],3
same,Blackgrass plant response rating,"[6]; Rate 62 g/ha, Postemergence",5
same,Blackgrass plant response rating,"[6]; Rate 125 g/ha, Postemergence",8
same,"Plant response rating, Blackgrass","[6]; Rate 125 g/ha, Preemergence",4
same,"Plant response rating, Blackgrass","[6]; Rate 250 g/ha, Postemergence",9
same,"Plant response rating, Blackgrass","[6]; Rate 250 g/ha, Preemergence",8
same,"Plant response rating, Blackgrass","[6]; Rate 500 g/ha, Postemergence",10
same,"Plant response rating, Blackgrass","[6]; Rate 500 g/ha, Preemergence",9
same,"Plant response rating, Velvetleaf",[7]; [11],8
same,Velvetleaf plant response rating,"[7]; Rate 62 g/ha, Postemergence",8
same,Velvetleaf plant response rating,"[7]; Rate 125 g/ha, Postemergence",8
same,"Plant response rating, Velvetleaf","[7]; Rate 125 g/ha, Preemergence",9
same,"Plant response rating, Velvetleaf","[7]; Rate 250 g/ha, Postemergence",8
same,"Plant response rating, Velvetleaf","[7]; Rate 250 g/ha, Preemergence",10
same,"Plant response rating, Velvetleaf","[7]; Rate 500 g/ha, Postemergence",8
same,"Plant response rating, Velvetleaf","[7]; Rate 500 g/ha, Preemergence",10
same,"Plant response rating, Corn",corn (Zea mays); [11],4
same,Corn plant response rating,"corn (Zea mays); Rate 62 g/ha, Postemergence",4
same,Corn plant response rating,"corn (Zea mays); Rate 125 g/ha, Postemergence",5
same,"Plant response rating, Corn","corn (Zea mays); Rate 125 g/ha, Preemergence",4
same,"Plant response rating, Corn","corn (Zea mays); Rate 250 g/ha, Postemergence",6
same,"Plant response rating, Corn","corn (Zea mays); Rate 250 g/ha, Preemergence",4
same,"Plant response rating, Corn","corn (Zea mays); Rate 500 g/ha, Postemergence",7
same,"Plant response rating, Corn","corn (Zea mays); Rate 500 g/ha, Preemergence",7
same,"Plant response rating, Wheat",[8]; [11],3
same,Wheat plant response rating,"[8]; Rate 62 g/ha, Postemergence",3
same,Wheat plant response rating,"[8]; Rate 125 g/ha, Postemergence",4
same,"Plant response rating, Wheat","[8]; Rate 125 g/ha, Preemergence",3
same,"Plant response rating, Wheat","[8]; Rate 250 g/ha, Postemergence",5
same,"Plant response rating, Wheat","[8]; Rate 250 g/ha, Preemergence",3
same,"Plant response rating, Wheat","[8]; Rate 500 g/ha, Postemergence",6
same,"Plant response rating, Wheat","[8]; Rate 500 g/ha, Preemergence",4
same,"Plant response rating, Sugarbeets",[9]; [11],9
same,Sugarbeets plant response rating,"[9]; Rate 62 g/ha, Postemergence",9
same,Sugarbeets plant response rating,"[9]; Rate 125 g/ha, Postemergence",9
same,"Plant response rating, Sugarbeets","[9]; Rate 125 g/ha, Preemergence",10
same,"Plant response rating, Sugarbeets","[9]; Rate 250 g/ha, Postemergence",9
same,"Plant response rating, Sugarbeets","[9]; Rate 250 g/ha, Preemergence",10
same,"Plant response rating, Sugarbeets","[9]; Rate 500 g/ha, Postemergence",9
same,"Plant response rating, Sugarbeets","[9]; Rate 500 g/ha, Preemergence",10
same,Cocklebur plant response rating,"[10]; Rate 62 g/ha, Postemergence",7
same,Cocklebur plant response rating,"[10]; Rate 125 g/ha, Postemergence",7
same,"Plant response rating, Cocklebur","[10]; Rate 250 g/ha, Postemergence",8
same,"Plant response rating, Cocklebur","[10]; Rate 250 g/ha, Preemergence",2
same,"Plant response rating, Cocklebur","[10]; Rate 500 g/ha, Postemergence",9
same,"Plant response rating, Cocklebur","[10]; Rate 500 g/ha, Preemergence",5

# Source: US6525001B1, “Substituted pyrimidine and pyridine herbicides” (Mid-American Commercialization Corporation, priority 1997, dated 2003)
